{"source": "patent US20240238244A1", "about": "“USE OF A COMPOUND SUCH AS […] TREATING A VIRAL PULMONARY DISEASE” (4LIVING BIOTECH, priority 2021, published 2024)", "key": {"[1]": {"system": "H3N2 influenza A virus strain Scotland/20/74"}, "[2]": {"system": "H3N2 influenza A virus strain Scotland/20/74", "conditions": "day 7; for Mean necrosis/cell death score: Influenza group 0.90; for Mean edema/HM/congestion score: Influenza group 1.50; for Mean inflammation score: Influenza group 1.90; for Mean total score according to Meyerholz and Beck: Influenza group 4.50"}, "[3]": {"system": "H3N2 influenza A virus strain Scotland/20/74", "conditions": "day 7; for Mean IL-17 levels in lung homogenates: Influenza group 575.58, non-infected 874.47; for Mean IL-1β levels in lung homogenates: Influenza group 3502.64, non-infected 1347.22; for Mean TNFα levels in lung homogenates: Influenza group 11038.49, non-infected 11879.58; for Mean IL-6 levels in lung homogenates: Influenza group 15055.10, non-infected 2412.49; for Mean C5a levels in lung homogenates: Influenza group 3758066.67, non-infected 2540416.67; for Mean CRP levels in lung homogenates: Influenza group 9243070.24, non-infected 2718616.67"}, "[4]": {"system": "H3N2 influenza A virus strain Scotland/20/74", "conditions": "day 7; for Percentage of fibrocytes recruited in the lung: Infected group 28.05±26.78%, Not-infected 7.58±1.70%", "description": "Treatments were administered twice a day subcutaneously (SC) in mice from day 1 to day 6 by grasping the skin along back of mice. The needle was inserted at base of skin old between thumb and finger and solution was injected. Plerixafor® was administered (100 μl) twice a day to group “Infected+Plerixafor 1 mg/kg”, “Infected+Plerixafor 3 mg/kg”, and “Infected+Plerixafor 10 mg/kg”. Thus, mice received daily 1, 3 and 10 mg/kg for 7 days for group “Infected+Plerixafor 1 mg/kg”, “Infected+Plerixafor 3 mg/kg”, and “Infected+Plerixafor 10 mg/kg” respectively. Group “Infected” received water twice a day (100 μl).\nThe percentage of general fibrocytes was evaluated in lung by flow cytometry analysis. The proportion of fibrocytes was assessed using a combination of Antibody/Fluorochrome, i.e. CD45+, FSP1+, and their viability was assessed using the Live Dead cell viability assay. For each tested condition, a general gating strategy was followed to identify the different sub-populations. First, cells of interest were selected according to granulometry and size events via the FSC-H (Forward Scatter Height) and SSC-H (Side Scatter Height) parameters. Then, on the selected cells, fibrocytes were identified as CD45+/FSP1+ cells.\nThe percentage of fibrocytes recruited in the lung was evaluated at day 7 for 4 mice per group (3 for non-infected group)."}, "[5]": {"conditions": "Plerixafor 2.5 mg/kg daily SC (group 3M)"}, "[6]": {"conditions": "Plerixafor 5 mg/kg daily SC (group 4M)"}, "[7]": {"conditions": "Plerixafor 10 mg/kg daily SC (group 5M)"}, "[8]": {"conditions": "Plerixafor 20 mg/kg daily SC (group 6M)"}, "[9]": {"conditions": "Plerixafor 20 mg/kg daily SC (group 6M), p<0.01"}, "[10]": {"conditions": "Plerixafor at 2, 5, 5, 10 and 20 mg/kg"}, "[11]": {"conditions": "Plerixafor at 2, 5, 5 and 10 mg/kg"}}, "note": "Several values for one entry are separate records, joined by “and”; a condition that tells them apart may be missing. Equal entries are not always repeated. Where two headings read alike, the source gives them in different places.", "data": [{"smiles": "c1cc(CN2CCCNCCNCCCNCC2)ccc1CN1CCCNCCNCCCNCC1", "note": "[Plerixafor, 1,1′-[1,4-phenylene-bis(methylene)]-bis-1,4,8,11-tetraazacyclotetradecane]", "values": [{"measurement": "BW (body weight) 7 days after the infection", "setting": "[1]; Plerixafor 20 mg/kg daily (10 mg/kg SC twice a day, day 1 to 6), day 7, influenza group 94±5%, non-infected 103±4%, p<0.05", "result": "97±5", "unit": "%"}, {"measurement": "Modulation of BW loss", "setting": "[1]; Plerixafor at doses inferior or equal to 10 mg/kg daily, SC twice a day, day 1 to 6", "result": "did not modulate BW loss"}, {"measurement": "Mean necrosis/cell death score", "setting": "[2]; [5]", "result": 0.50}, {"measurement": "Mean edema/HM/congestion score", "setting": "[2]; [5]", "result": 0.70}, {"measurement": "Mean inflammation score", "setting": "[2]; [5]", "result": 1.40}, {"measurement": "Mean total score according to Meyerholz and Beck", "setting": "[2]; [5]", "result": 2.70}, {"measurement": "Mean necrosis/cell death score", "setting": "[2]; [6]", "result": 0.80}, {"measurement": "Mean edema/HM/congestion score", "setting": "[2]; [6]", "result": 0.90}, {"measurement": "Mean inflammation score", "setting": "[2]; [6]", "result": 2.00}, {"measurement": "Mean total score according to Meyerholz and Beck", "setting": "[2]; [6]", "result": 4.00}, {"measurement": "Mean necrosis/cell death score", "setting": "[2]; [7]", "result": 0.50}, {"measurement": "Mean edema/HM/congestion score", "setting": "[2]; [7]", "result": 0.50}, {"measurement": "Mean inflammation score", "setting": "[2]; [7]", "result": 1.70}, {"measurement": "Mean total score according to Meyerholz and Beck", "setting": "[2]; [7]", "result": 2.90}, {"measurement": "Mean necrosis/cell death score", "setting": "[2]; [8]", "result": "0.40±0.70 and 0.40"}, {"measurement": "Mean edema/HM/congestion score", "setting": "[2]; [8]", "result": "0.60±0.52 and 0.60"}, {"measurement": "Mean inflammation score", "setting": "[2]; [8]", "result": "1.60±1.17 and 1.60"}, {"measurement": "Mean total score according to Meyerholz and Beck", "setting": "[2]; [8]", "result": "2.80±2.35 and 2.80"}, {"measurement": "Severity, distribution and incidence of pulmonary lesions in comparison to influenza treated mice", "setting": "[2]; groups 3M, 4M, 5M and 6M (Plerixafor 2.5, 5, 10, 20 mg/kg daily SC)", "result": "slightly lower"}, {"measurement": "Mean IL-17 levels in lung homogenates", "setting": "[3]; [5]", "result": "748.08 pg/ml/g of tissue"}, {"measurement": "Mean IL-1β levels in lung homogenates", "setting": "[3]; [5]", "result": "4317.27 pg/ml/g of tissue"}, {"measurement": "Mean TNFα levels in lung homogenates", "setting": "[3]; [5]", "result": "8983.01 pg/ml/g of tissue"}, {"measurement": "Mean IL-6 levels in lung homogenates", "setting": "[3]; [5]", "result": "11166.93 pg/ml/g of tissue"}, {"measurement": "Mean C5a levels in lung homogenates", "setting": "[3]; [5]", "result": "3699919.44 pg/ml/g of tissue"}, {"measurement": "Mean CRP levels in lung homogenates", "setting": "[3]; [5]", "result": "9241738.89 pg/ml/g of tissue"}, {"measurement": "Mean IL-17 levels in lung homogenates", "setting": "[3]; [6]", "result": "663.57 pg/ml/g of tissue"}, {"measurement": "Mean IL-1β levels in lung homogenates", "setting": "[3]; [6]", "result": "2534.11 pg/ml/g of tissue"}, {"measurement": "Mean TNFα levels in lung homogenates", "setting": "[3]; [6]", "result": "9307.38 pg/ml/g of tissue"}, {"measurement": "Mean IL-6 levels in lung homogenates", "setting": "[3]; [6]", "result": "11059.46 pg/ml/g of tissue"}, {"measurement": "Mean C5a levels in lung homogenates", "setting": "[3]; [6]", "result": "3440259.52 pg/ml/g of tissue"}, {"measurement": "Mean CRP levels in lung homogenates", "setting": "[3]; [6]", "result": "7792352.38 pg/ml/g of tissue"}, {"measurement": "Mean IL-17 levels in lung homogenates", "setting": "[3]; [7]", "result": "799.98 pg/ml/g of tissue"}, {"measurement": "Mean IL-1β levels in lung homogenates", "setting": "[3]; [7]", "result": "3319.66 pg/ml/g of tissue"}, {"measurement": "Mean TNFα levels in lung homogenates", "setting": "[3]; [7]", "result": "11138.01 pg/ml/g of tissue"}, {"measurement": "Mean IL-6 levels in lung homogenates", "setting": "[3]; [7]", "result": "13927.98 pg/ml/g of tissue"}, {"measurement": "Mean C5a levels in lung homogenates", "setting": "[3]; [7]", "result": "3519038.68 pg/ml/g of tissue"}, {"measurement": "Mean CRP levels in lung homogenates", "setting": "[3]; [7]", "result": "8406400.43 pg/ml/g of tissue"}, {"measurement": "Mean IL-17 levels in lung homogenates", "setting": "[3]; [8]", "result": "603.22 pg/ml/g of tissue"}, {"measurement": "Mean IL-1β levels in lung homogenates", "setting": "[3]; [8]", "result": "2805.78 pg/ml/g of tissue"}, {"measurement": "Mean TNFα levels in lung homogenates", "setting": "[3]; [8]", "result": "6224.51±3014.54 pg/ml/g of tissue and 6224.51 pg/ml/g of tissue"}, {"measurement": "Mean IL-6 levels in lung homogenates", "setting": "[3]; Plerixafor 20 mg/kg daily SC (group 6M), p<0.05", "result": "5408.82±3539.57 pg/ml/g of tissue and 5408.82 * pg/ml/g of tissue"}, {"measurement": "Mean C5a levels in lung homogenates", "setting": "[3]; [9]", "result": "2220172.76±972810.94 pg/ml/g of tissue and 2220172.76 pg/ml/g of tissue"}, {"measurement": "Mean CRP levels in lung homogenates", "setting": "[3]; [9]", "result": "4488307.08±2059120.87 pg/ml/g of tissue and 4488307.08 pg/ml/g of tissue"}, {"measurement": "Modulation of IL-1β levels", "setting": "[3]; [10]", "result": "did not significantly modulate"}, {"measurement": "Modulation of IL-17 levels", "setting": "[3]; [10]", "result": "did not significantly modulate"}, {"measurement": "Modulation of C5a levels", "setting": "[3]; [11]", "result": "did not significantly modulate"}, {"measurement": "Modulation of IL-6 levels in comparison to Influenza group", "setting": "[3]; [11]", "result": "did not significantly modulate"}, {"measurement": "Modulation of TNFα levels", "setting": "[3]; [11]", "result": "did not significantly modulate"}, {"measurement": "Modulation of CRP levels", "setting": "[3]; Plerixafor at 2.5, 5 and 10 mg/kg", "result": "did not significantly modulate"}, {"measurement": "Percentage of fibrocytes recruited in the lung", "setting": "[4]; Infected+Plerixafor 1 mg/kg daily SC", "result": "19.77±19.93", "unit": "%"}, {"measurement": "Percentage of fibrocytes recruited in the lung", "setting": "[4]; Infected+Plerixafor 3 mg/kg daily SC", "result": "12.90±5.44", "unit": "%"}, {"measurement": "Percentage of fibrocytes recruited in the lung", "setting": "[4]; Infected+Plerixafor 10 mg/kg daily SC", "result": "23.86±18.39", "unit": "%"}, {"measurement": "Effect on the recruitment of fibrocytes in the lung", "setting": "[4]; whatever the Plerixafor dosage tested (1, 3, 10 mg/kg daily), no dose-effect", "result": "does not affect significantly"}]}]}
